Patent publication US20250312333A1, “COMPOSITION CONTAINING ARIPIPRAZOLE AS ACTIVE INGREDIENT FOR ENHANCING ANTICANCER EFFECT OF KRAS G12C GENETIC MUTATION THERAPEUTIC AGENT” (KOREA INSTITUTE OF RADIOLOGICAL & MEDICAL SCIENCES, priority 2022, published 2025)

What was measured:
Assay type in all cases: cell-based
NOXA protein [1] = assay: NOXA protein expression by Western blot in NCI-H1373 cells; conditions: aripiprazole treatment, eight hours, Western blot (FIG. 1)
Procedure: (§1) To identify an effect of aripiprazole on the expression of a NOXA protein in cancer cells, MIA PaCa-2 cells and NCI-H1373 cells were treated with aripiprazole. Eight hours later, proteins were extracted from cells after washing with PBS, and a level of NOXA expression was checked via Western blot.

MIA PaCa-2 cells = assay: PARP cleavage (apoptosis) by Western blot in MIA PaCa-2 cells; conditions: co-treatment with the therapeutic agent for KRAS G12C genetic mutation vs either agent alone, twenty four hours (FIG. 3)
Procedure: (§2) To identify the effect of aripiprazole on apoptosis induced by the therapeutic agent for KRAS G12C genetic mutation in cancer cells, MIA PaCa-2 cells were treated with aripiprazole alone or in combination with the therapeutic agent for KRAS G12C genetic mutation. Twenty four hours later, proteins were extracted from cells after washing with PBS, and the degree of PARP cleavage was checked via Western blot.

NOXA protein [2] = assay: NOXA protein expression by Western blot in MIA PaCa-2 cells; conditions: aripiprazole treatment, eight hours, Western blot (FIG. 1)
Procedure: as §1

NCI-H1373 cells = assay: PARP cleavage (apoptosis) by Western blot in NCI-H1373 cells; conditions: co-treatment with the therapeutic agent for KRAS G12C genetic mutation vs either agent alone, twenty four hours (FIG. 4)
Procedure: as §2, with “NCI-H1373” for “MIA PaCa-2”

O=C1CCc2ccc(OCCCCN3CCN(c4cccc(Cl)c4Cl)CC3)cc2N1 [aripiprazole]
expression of NOXA protein (NOXA protein [1]): increased | degree of PARP cleavage (MIA PaCa-2 cells): superior effect of inducing PARP cleavage | expression of NOXA protein (NOXA protein [2]): increased | degree of PARP cleavage (NCI-H1373 cells): superior effect of inducing PARP cleavage
